In patent US10183058B2, “Method of preventing or reducing the progression of prostate cancer” (Nymox Corporation, priority 2016, dated 2019):
Ends that are not written are not given here.

Tested on: prostate cancer
Assay: Clinical studies in men with BPH given SEQ ID NO. 66 by intraprostatic injection; incidence of clinically or biopsy detected prostate cancer
Type: in vivo, human (men)
Settings: 2.5 mg intraprostatic injection; for Incidence of cancer (Gleason Grade >= 7): follow-up up to 6.5 years, compared to known expected incidence of 5-6%
Method: In a series of clinical studies undertaken between 2009 and 2016 a total of 628 men with benign prostatic hyperplasia (BPH) received SEQ ID NO. 66 (Ile-Asp-Gln-Gln-Val-Leu-Ser-Arg-Ile-Lys-Leu-Glu-Ile-Lys-Arg-Cys-Leu), 2.5 mg given by intraprostatic injection into the transition zone of the prostate to treat the symptoms of BPH and were subsequently followed clinically and by laboratory testing. After intervals up to 6.5 years after injection, all available patients were followed urologically at specialized clinics with investigation of BPH symptoms and events of disease progression and safety assessments. All cases of clinically or biopsy detected prostate cancer were documented. The incidence of new biopsy or surgically proven prostate cancer after 12 months and overall was compared to the incidence of detected prostate cancer in large long-term clinical trials in the medical literature. Although a) the treatments were for BPH; b) the injections were directed at the central part of the prostate where cancer is less common; and c) the injections consisted of only a single or two injection(s) of SEQ ID NO. […]
In a series of clinical studies undertaken between 2009 and 2016, a total of 816 men with benign prostatic hyperplasia (BPH) received SEQ ID NO. […] All cases of clinically or biopsy detected prostate cancer were documented. The incidence of new biopsy or surgically proven prostate cancer after 12 months and overall was compared to the incidence of detected prostate cancer in the patients receiving the sterile saline solution (control). […]
In a series of clinical studies undertaken between 2009 and 2016 a total of 628 men with benign prostatic hyperplasia (BPH) received SEQ ID NO. […] All cases of clinically or biopsy detected prostate cancer were documented. The incidence of new biopsy or surgically proven prostate cancer of Gleason Grade>=7 was compared to the incidence of detected prostate cancer in large long-term clinical trials in the medical literature. […]

Sequence: IDQQVLSRIKLEIKRCL [SEQ ID NO: 66]
- incidence of prostate cancer (after 12 months and overall) (compared to known expected incidence of 2-25%): 0-1.3%
- Incidence of cancer (Gleason Grade >= 7): <0.3%
- Incidence of cancer (Gleason Grade >= 7) (listed as SEQ ID NO. 66): < 0.3%
